Values quoted from earlier work as cited in patent US6777561B1, “Compounds” (AstraZeneca Canada Inc., priority 1998, dated 2004).

Legend:
δ receptor = details: background statement on non-peptidic δ antagonists
[1] = background statement on non-peptidic δ antagonists

SMILES: Oc1ccc2c3c1O[C@H]1c4[nH]c5ccccc5c4C[C@@]4(O)[C@@H](C2)N(CC2CC2)CC[C@]314 [naltrindole]
- selectivity for the δ receptor vs. μ receptor binding (δ receptor): < 10 fold
- analgesic activity [1]: no analgesic activity
